Laboratory results taken from patent US12441733B2, “Substituted 2,4-dioxotetrahydropyrimidines as intermediates in the synthesis of bruton's tyrosine kinase inhibitors” (Novartis AG, priority 2018, dated 2025).

Tests used:
Format in all cases: cell-based
OCI-LY3 cells = assay: Resazurin cell viability (proliferation) assay in OCI-LY3 DLBCL cells; conditions: Homo sapiens, OCI-LY3 cells (BTK independent), 72 h, 50% growth inhibition vs vehicle, read-out: OCI-LY3 Prol GI50
Description: (§1) Compounds of the invention were tested in the following cellular assays. The terms in Table 2 are defined as follows: DC50 refers to the concentration at which 50% maximal degradation was observed; deg Amax is the extent of degradation and the value refers to the % protein remaining at the concentration at which maximum degradation is seen; ProI GI50 refers to the proliferation data and defines the concentration at which 50% growth inhibition was observed compared to the vehicle treated control at the end of the incubation time. TMD8 cells are BTK dependent and OCI-LY3 cells are BTK independent.
(§2) Cell Viability Assay in DLBCL (Diffuse Large B-Cell Lymphoma) Cells:
(§3) The effect of the BTK compounds on cell proliferation was measured by a Resazurin (Sigma, #R7017) based cell viability assay. TMD8 (BTK compound sensitive) and OCI-LY3 (BTK compound insensitive) cells were incubated for 72 h at 37° C. and 5% CO2 with the corresponding compound, Resazurin is a non-toxic, cell-permeable substrate that is virtually non-fluorescent. Upon entering living cells, Resazurin (Sigma, #R7017) is reduced to highly fluorescent Resorufin. The metabolic activity was assessed by measuring the fluorescence signal (ex. 530 nm; em. 600 nm).
(§4) TMD8 and OCI-Ly3 cells were seeded at day 0 in triplicates at a cell density of 1×10^4 cells per 150 μl/well in a 96-well plate (Costar #3904). Additional plates were prepared, in order to assess the basal metabolic activity of both cell lines at the beginning of the experiment. For these reference plates, Resazurin (Sigma, #R7017) was added to a final concentration of 13 μg/ml 3 h post seeding and was incubated for 2 h at 37° C. and 5% CO2. Following incubation, the fluorescent signal intensity of the 96-well plates was measured on a Mithras LB940 multimode plate reader at 530/600 nm (Berthold Technologies, Germanyl).
(§5) In parallel, 3 h post-seeding, test-plates were treated with compound at various concentrations, or with vehicle (DMSO) alone for 3 days. The compound addition to the plates was performed by using a HP D300 digital dispenser (TECAN, Switzerland). The compounds were tested in triplicate, 8-point serial dilution (1:4), with a start concentration of 10 μM for OCI-LY3 and 1 μM for the TMD8 cells, respectively. To assess the relative proliferation of the cells, Resazurin was added to each well directly to the medium to a final concentration of 13 μg/ml. The plates were incubated for 2 h at 37° C. and 5% CO2 to result in a 72 h endpoint. Following incubation, the fluorescent signal intensity of the 96-well plates were measured on a Mithras LB940 multimode plate reader at 530/600 nm (Berthold Technologies, Germanyl). The formation of Resorufin dye directly correlates with the number of metabolically active cells. For each triplicate treatment the mean and standard deviation were calculated and analyzed via curve fitting software to determine the respective compound concentration resulting in 50% growth inhibition (GI50) values. For each compound GI50 values were typically determined from at least 2 entirely independent experiments.
OCI-LY3 cells were acquired through a license agreement with University Health Network, Toronto, Canada. Cells are cultivated in RPM11640 media (Gibco, #61870-010, lot. 1894759), supplemented with 10% FCS (HyClone, GE #SH30066.03, lot AB217603), 2 mM L-Glutamine (BioConcept, #5-10K50-H, lot. LA03467P), 1 mM Sodium Pyruvate (BioConcept, #5-60F00-H, lot. LB10510P), 10 mM HEPES (Gibco, #15630-056, lot. 1854074), 1% Pen/Strep (BioConcept, #4-01F00-H, lot. LB04235P).

BTK-GFP = molecular target: T1, BTK-GFP (Homo sapiens, UniProt Q06187+Q96SW2); assay: BTK-GFP protein abundance flow cytometry assay in HEK293A cells; conditions: HEK293A BTK-GFP-iresRFP cells, 24 h; for DC50: GFP signal by flow cytometry, concentration at which 50% maximal degradation was observed; for BTK deg Amax: % protein remaining at the concentration at which maximum degradation is seen
T1 construct: expressed in transfected cells; host or cells: HEK293A (Invitrogen R70507), lentiviral transduction with pLenti6-BTK-GFP-Ires-RFP, blasticidin selection
T1 sequence (Q06187 whole entry): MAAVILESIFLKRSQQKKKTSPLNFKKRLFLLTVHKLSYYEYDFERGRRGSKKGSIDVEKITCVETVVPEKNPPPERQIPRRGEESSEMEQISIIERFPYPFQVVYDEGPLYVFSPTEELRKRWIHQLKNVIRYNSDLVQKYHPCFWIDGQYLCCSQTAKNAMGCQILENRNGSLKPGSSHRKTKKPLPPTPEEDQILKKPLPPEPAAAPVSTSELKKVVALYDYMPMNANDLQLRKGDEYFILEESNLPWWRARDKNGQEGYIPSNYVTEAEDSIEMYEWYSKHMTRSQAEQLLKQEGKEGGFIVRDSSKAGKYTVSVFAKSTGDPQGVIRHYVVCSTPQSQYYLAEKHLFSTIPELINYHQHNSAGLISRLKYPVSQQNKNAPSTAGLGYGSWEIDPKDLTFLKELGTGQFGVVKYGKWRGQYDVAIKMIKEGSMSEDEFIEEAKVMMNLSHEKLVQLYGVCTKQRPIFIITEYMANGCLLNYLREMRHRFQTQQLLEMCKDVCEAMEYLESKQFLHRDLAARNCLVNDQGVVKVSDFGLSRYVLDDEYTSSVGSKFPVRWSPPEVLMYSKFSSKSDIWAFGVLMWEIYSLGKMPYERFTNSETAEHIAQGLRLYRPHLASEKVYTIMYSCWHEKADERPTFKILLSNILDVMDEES
T1 sequence (Q96SW2 whole entry): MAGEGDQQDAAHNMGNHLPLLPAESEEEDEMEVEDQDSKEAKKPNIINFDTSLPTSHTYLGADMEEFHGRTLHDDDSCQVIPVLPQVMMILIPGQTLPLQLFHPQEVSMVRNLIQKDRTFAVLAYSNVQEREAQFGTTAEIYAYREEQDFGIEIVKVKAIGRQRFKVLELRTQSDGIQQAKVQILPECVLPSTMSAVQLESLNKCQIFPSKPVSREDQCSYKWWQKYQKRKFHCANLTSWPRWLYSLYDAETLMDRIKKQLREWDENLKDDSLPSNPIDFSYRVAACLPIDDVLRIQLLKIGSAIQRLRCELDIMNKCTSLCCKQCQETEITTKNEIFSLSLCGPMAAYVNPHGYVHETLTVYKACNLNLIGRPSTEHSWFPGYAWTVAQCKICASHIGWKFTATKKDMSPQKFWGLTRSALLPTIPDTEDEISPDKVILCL
T1 sequence (Q16531 whole entry partner): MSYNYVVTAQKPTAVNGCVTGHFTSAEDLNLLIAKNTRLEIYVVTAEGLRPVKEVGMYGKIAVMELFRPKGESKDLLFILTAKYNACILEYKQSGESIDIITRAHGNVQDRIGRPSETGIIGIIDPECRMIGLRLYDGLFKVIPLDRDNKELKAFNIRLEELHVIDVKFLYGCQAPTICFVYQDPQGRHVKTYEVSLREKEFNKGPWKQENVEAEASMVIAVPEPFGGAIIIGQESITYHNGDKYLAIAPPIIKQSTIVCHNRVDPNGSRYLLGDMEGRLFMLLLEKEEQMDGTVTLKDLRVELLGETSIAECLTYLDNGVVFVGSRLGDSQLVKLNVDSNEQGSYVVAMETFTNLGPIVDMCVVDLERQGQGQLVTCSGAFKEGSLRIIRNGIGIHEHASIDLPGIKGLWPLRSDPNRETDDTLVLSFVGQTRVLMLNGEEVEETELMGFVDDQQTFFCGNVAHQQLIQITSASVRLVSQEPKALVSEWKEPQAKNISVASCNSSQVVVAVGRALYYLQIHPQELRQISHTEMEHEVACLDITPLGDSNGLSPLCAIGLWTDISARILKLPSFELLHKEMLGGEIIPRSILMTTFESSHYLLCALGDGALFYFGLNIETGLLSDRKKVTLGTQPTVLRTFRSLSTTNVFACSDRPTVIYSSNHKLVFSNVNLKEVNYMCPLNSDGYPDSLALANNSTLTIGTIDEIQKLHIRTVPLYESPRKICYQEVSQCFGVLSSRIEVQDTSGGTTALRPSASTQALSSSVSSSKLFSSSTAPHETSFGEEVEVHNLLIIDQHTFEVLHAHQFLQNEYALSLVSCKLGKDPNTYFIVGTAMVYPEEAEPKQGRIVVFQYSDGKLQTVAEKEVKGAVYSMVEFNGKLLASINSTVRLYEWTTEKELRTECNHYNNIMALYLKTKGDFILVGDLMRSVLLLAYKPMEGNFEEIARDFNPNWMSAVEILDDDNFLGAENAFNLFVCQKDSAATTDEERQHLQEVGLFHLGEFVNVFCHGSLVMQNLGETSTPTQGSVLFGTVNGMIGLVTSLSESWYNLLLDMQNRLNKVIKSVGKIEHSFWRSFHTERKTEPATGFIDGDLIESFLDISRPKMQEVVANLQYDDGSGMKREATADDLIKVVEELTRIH
Description: as §1
BTK-GFP and IKZF3-GFP protein abundance flow cytometry assay in HEK293A cells:
Degradation of BTK or IKZF3 was measured in HEK293A cells (Invitrogen R70507) expressing either BTK-GFP and RFP or IKZF3-GFP and RFP from a stably integrated bicistronic BTK-GFP-iresRFP or IKZF3-GFP-iresRFP construct, respectively. Reduction of the GFP signal measured by flow cytometry served as readout for BTK or IKZF3 degradation after degrader treatment.
i) Cloning of the pLenti6-BTK-GFP-1Res-RFP and IKZF3-GFP-Ires-RFP Sensor Vectors
The bicistronic BTK-GFP-iresRFP construct is based on a pLenti6-DEST vector backbone where GFP was introduced into the unique Xho1 site downstream of the destination cassette (DEST) and RFP was cloned behind an internal ribosomal entry site (Ires).
In detail, the sensor construct was engineered by replacing NanoLuciferase (NLuc) by GFP and FireFly luciferase (FF) by RFP from pLenti6-DEST-NLuc-Ires-FF.
The pLenti6-DEST-NLuc-Ires-FF sensor construct was cloned by replacing eGFP from pLenti6-DEST-ires-eGFP with a synthesized stuffer element (encoding Ires-FF with FF flanked by two Nhe1 restriction sites) using blunt end cloning replacing Ires-eGFP between the two PmII. To enable C-terminal tagging with NanoLuciferase (NLuc), NLuc was amplified from pNL1.1 (Promega #N1001) using linker primers with Xho1 sites for ligating into linearized pLenti6-DEST-Ires-FF using Xho1 digest resulting in the construct pLenti6-DEST-NLuc-Ires-FF.
The pLenti6-DEST-NLuc-Ires-FF served as base vector for cloning pLenti6-DEST-GFP-Ires-RFP using Gibson assembly to replace FF with RFP and NLuc with GFP. In a first round FF was replaced by RFP by amplifying RFP from a template using the following Gibson assembly linker primers (Gibson-Nhe1 RFPfw, […]gctagc[…] (SEQ ID NO: 1); Gibson-Nhe1 RFP-Stoprev, […]ctagc[…] (SEQ ID NO: 2)) to clone into pLenti6-DEST-NLuc-Ires-FF digested with Nhe1 and gel-purified to remove the FF fragment. The resulting pLenti6-DEST-NLuc-Ires-RFP vector served as the template to replace NLuc with GFP by amplifying GFP from a template using following Gibson assembly linker primers (Gibson-Xho1 GFPfw, […]c[…] (SEQ ID NO: 3); Gibson-Xho1 GFP-Stoprev, […] (SEQ ID NO: 4)) to clone into pLenti6-DEST-NLuc-Ires-RFP digested with Xho1 and gel-purified to remove the NLuc fragment. All Gibson assembly reactions were performed with Gibson assembly Master Mix (New England Biolabs NEB E261 IL) according to manufacturer's manual, resulting in the destination vector pLenti6-DEST-GFP-Ires-RFP to allow Gateway cloning. To enable gateway cloning and C-terminal GFP tagging of BTK, the BTK open reading frame (ORF) was first shuttled from a pcDNA-DEST40-BTK vector (Invitrogen library ID INV_20090504v1) into pDONR221 (Invitrogen 12536-017) vector using a gateway BP reaction according to the manufacturer's manual (Invitrogen 11789-013) resulting in the novel construct pENTR221-BTK. For C-terminal tagging the STOP codon was mutated to a leucine performing a mutagenesis reaction with the following primers (pENTR221-BTK Quikchange STOP-Leu fw, gtcatggatgaagaatccTTGaacccagctttcttgtac; pENTR221-BTK Quikchange STOP-Leu REVC, gtacaagaaagctgggttCAAggattcttcatccatgac) using the QuikChange Lightning mutagenesis kit (Agilent Technologies #210518) according to the manufacturer's manual, resulting in pENTR221-BTK (STOP-Leu). […]

TMD8 cells = assay: Resazurin cell viability (proliferation) assay in TMD8 DLBCL cells; conditions: Homo sapiens, TMD8 cells (BTK dependent), 72 h, 50% growth inhibition vs vehicle, read-out: TMD8 Prol GI50
Description: as §1, §2, §3, §4, §5
TMD8 cells were acquired through a license agreement with Tokyo Medical and Dental University, Japan. Cells are cultivated in MEM Alpha (BioConcept, #1-23F01-1, lot. LB04262P) supplemented with 10% FCS (HyClone, GE #SH30066.03, lot AB3217603), 2 mM L-Glutamine (BioConcept, #5-10K50-H, lot. LA03467P), 1% Pen/Strep (BioConcept, #4-01F00-H, lot. LB04235P).

Which results are given for Cc1ccc(C(=O)N2CCC(OC3CCN(CCc4ccc(-c5cc6c(-c7cc(F)cc(NC(=O)c8ccc(C(C)(C)O)cc8F)c7C)ncnc6[nH]5)cc4)CC3)CC2)cc1N1CCC(=O)NC1=O [Compound 10, N-(3-(6-(4-(2-(4-((1-(3-(2,4-Dioxotetrahydropyrimidin-1(2H)-yl)-4-methylbenzoyl)piperidin-4-yl)oxyl)piperidin-1-yl)ethyl)phenyl)-7H-pyrrolo[2,3-d]pyrimidin-4-yl)-5-fluoro-2-methylphenyl)-2-fluoro-4-(2-hydroxypropan-2-yl)benzamide]?
GI50 (OCI-LY3 cells): 5940 nM; DC50 (BTK-GFP): 0.7 nM; BTK deg Amax (BTK-GFP): 2.3%; GI50 (TMD8 cells): 0.36 nM

What does the source list for COc1ccc(C(=O)N2CCC3(CCN(CCCc4ccc(-c5cc6c(-c7cc(F)cc(NC(=O)c8ccc(C(C)(C)O)cc8F)c7C)ncnc6[nH]5)cc4)CC3)CC2)cc1N1CCC(=O)NC1=O [Compound 11, N-(3-(6-(4-(3-(9(3-(2,4-Dioxotetrahydropyrimidin-1(2H)-yl)-4-methoxybenzoyl)-3,9-diazaspiro[5.5]undecan-3-yl)propyl)phenyl)-7H-pyrrolo[2,3-d]pyrimidin-4-yl)-5-fluoro-2-methylphenyl)-2-fluoro-4-(2-hydroxypropan-2-yl)benzamide]?
GI50 (OCI-LY3 cells): > 10000 nM; DC50 (BTK-GFP): 5 nM; BTK deg Amax (BTK-GFP): 4.7%; GI50 (TMD8 cells): 0.84 nM

For COc1ccc(C(=O)N2CCC(CCN3CCC(OCc4ccc(-c5cc6c(-c7cc(F)cc(NC(=O)c8ccc(C(C)(C)O)cc8F)c7C)ncnc6[nH]5)cc4)CC3)CC2)cc1N1CCC(=O)NC1=O [Compound 13, N-(3-(6-(4-(((1-(2-(1-(3-(2,4-Dioxotetrahydropyrimidin-1(2H)-yl)-4-methoxybenzoyl)piperidin-4-yl)ethyl)piperidin-4-yl)oxyl)methyl)phenyl)-7H-pyrrolo[2,3-d]pyrimidin-4-yl)-5-fluoro-2-methylphenyl)-2-fluoro-4-(2-hydroxypropan-2-yl)benzamide], which GI50 (OCI-LY3 cells) is on record?
The GI50 was 3390 nM.

What about the DC50 (BTK-GFP) of the same compound?
Its DC50 is 0.8 nM.

What about the “BTK deg Amax” value (BTK-GFP) of the same compound?
Its value is 1.8%.

And the GI50 (TMD8 cells)?
The GI50 was 0.18 nM.

For COc1ccc(C(=O)N2CCC(CCCN3CCC(Oc4ccc(-c5cc6c(-c7cc(F)cc(NC(=O)c8ccc(C(C)(C)O)cc8F)c7C)ncnc6[nH]5)cc4)CC3)CC2)cc1N1CCC(=O)NC1=O [Compound 15, N-(3-(6-(4-((1-(3-(1-(3-(2,4-Dioxotetrahydropyrimidin-1(2H)-yl)-4-methoxybenzoyl)piperidin-4-yl)propyl)piperidin-4-yl)oxyl)phenyl)-7H-pyrrolo[2,3-d]pyrimidin-4-yl)-5-fluoro-2-methylphenyl)-2-fluoro-4-(2-hydroxypropan-2-yl)benzamide], which GI50 (OCI-LY3 cells) is on record?
Its GI50 is 3380 nM.

What about the DC50 (BTK-GFP) of the same compound?
Its DC50 is 0.4 nM.

And the “BTK deg Amax” value (BTK-GFP)?
Its value is 1.6%.

What about the GI50 (TMD8 cells) of the same compound?
Its GI50 is 0.56 nM.

How did the GI50 (OCI-LY3 cells) turn out when COc1ccc(C(=O)N2CCN(CCN3CCN(Cc4ccc(-c5cc6c(-c7cc(F)cc(NC(=O)c8ccc(C(C)(C)O)cc8F)c7C)ncnc6[nH]5)cc4)CC3)CC2)cc1N1CCC(=O)NC1=O [Compound 16, N-(3-(6-(4-((4-(2-(4-(3-(2,4-Dioxotetrahydropyrimidin-1(2H)-yl)-4-methoxybenzoyl)piperazin-1-yl)ethyl)piperazin-1-yl)methyl)phenyl)-7H-pyrrolo[2,3-d]pyrimidin-4-yl)-5-fluoro-2-methylphenyl)-2-fluoro-4-(2-hydroxypropan-2-yl)benzamide] was run?
Its GI50 is greater than 10000 nM.

And the DC50 (BTK-GFP)?
Its DC50 is 4.2 nM.

What about the “BTK deg Amax” value (BTK-GFP) of the same compound?
The value was 4.1%.

And the GI50 (TMD8 cells)?
The GI50 was 0.67 nM.

How did the GI50 (OCI-LY3 cells) turn out when COc1ccc(C(=O)N2CCC(CCN3CCN(Cc4ccc(-c5cc6c(-c7cc(F)cc(NC(=O)c8ccc(C(C)(C)O)cc8F)c7C)ncnc6[nH]5)cc4)CC3)CC2)cc1N1CCC(=O)NC1=O [Compound 17, N-(3-(6-(4-((4-(2-(1-(3-(2,4-Dioxotetrahydropyrimidin-1(2H)-yl)-4-methoxybenzoyl)piperidin-4-yl)ethyl)piperazin-1-yl)methyl)phenyl)-7H-pyrrolo[2,3-d]pyrimidin-4-yl)-5-fluoro-2-methylphenyl)-2-fluoro-4-(2-hydroxypropan-2-yl)benzamide] was run?
The GI50 was 4140 nM.

And the DC50 (BTK-GFP)?
Its DC50 is 2.3 nM.

What about the “BTK deg Amax” value (BTK-GFP) of the same compound?
The value was 11.0%.

And the GI50 (TMD8 cells)?
The GI50 was 0.5 nM.
